Consider 98 molecules from ChEMBL document CHEMBL3301361, “Experimental in vitro DMPK and physicochemical data on a set of publicly disclosed compounds”.

A short description of the data set: physchem. Conditions: octan-1-ol/water.

By logD is commonly meant lipophilicity at a set pH, counting ionised and neutral species. Low readings indicate lower lipophilicity, high ones higher lipophilicity.

`COc1cc(O)c2c(c1)/C=C/C[C@H](O)[C@H](O)C(=O)/C=C\C[C@H](C)OC2=O` displayed a logD (pH 7.4) of 1.64. Molecule `CC(=O)NC1CC(C)N(C(=O)c2ccccc2)c2ccccc21` (stereo not drawn) registered a logD (pH 7.4, LogD7.4) of 2. In the case of `N#Cc1c(-c2ccccc2)nc(SCCc2ccccc2)[nH]c1=O`, the logD (pH 7.4) amounted to 1.71. Take `CC(C)C(NC(=O)Cn1c(-c2cccs2)ncc(NC(=O)OCc2ccccc2)c1=O)C(=O)C(F)(F)F` (stereo not drawn): the logD (pH 7.4, LogD7.4) amounted to 2.02. On the same count and under the same terms, the result for `COC(=O)Nc1cnc(-c2ccc(F)cc2)n(CC(=O)NC(C(=O)C(F)(F)F)C(C)C)c1=O` (stereo not drawn) reads 1.82; that for `CC(C)C(NC(=O)Cn1c(-c2ccccc2)ccc(NC(=O)OCc2ccccn2)c1=O)C(=O)C(F)(F)F` (stereo not drawn), 1.91. The molecule `C[C@H]1NC(C)(C)CO[C@]1(O)c1cccc(Cl)c1` displayed a pH-dependent lipophilicity (logD) (pH 7.4) of 1.69. For the molecule `O=C(N[C@@H]1CN2CCC1CC2)c1ccc(-c2ccccc2)s1`, the logD (pH 7.4) came to 1.77. Molecule `CC(C)CC(c1ccccn1)n1[nH]c(=O)c2nc3cc(Cl)ccc3c(O)c2c1=O` (stereo not drawn) had a logD (pH 7.4, LogD7.4) of 1.83.

The molecule `O=c1[nH]n(C(c2ccccn2)C2CCCC2)c(=O)c2c(O)c3ccc(Cl)cc3nc12` (stereo not drawn) gave a logD (pH 7.4, LogD7.4) of 1.9. Under “pH 7.4, LogD7.4”, `Cc1cc2n[nH]c(=O)n2c2cc(-c3ccco3)ccc12` yielded a logD of 2.07. The logD values of the last two molecules are within 0.2 log units of each other. The molecule `NC(=O)c1cccc(O[C@H]2C[C@H]3CC[C@@H](C2)N3CC2CCCCC2)c1` gave a logD (pH 7.4) of 1.55. Still for that read-out and setting: the result for `NC(=O)c1cccc(O[C@H]2C[C@H]3CC[C@@H](C2)N3Cc2ccccc2)c1` reads 1.61; that for `NC(=O)c1cccc(O[C@@H]2C[C@H]3CC[C@@H](C2)N3Cc2ccccc2)c1`, 1.76. `NC(=O)c1cccc(O[C@H]2C[C@H]3CC[C@@H](C2)N3Cc2ccccc2)n1` came in with a logD (pH 7.4) of 1.71. This logD and that of the molecule before are within 0.2 log units of each other. On to `Cc1c(O[C@H]2C[C@H]3CC[C@@H](C2)N3Cc2ccccc2)cccc1C(N)=O`, for which the logD (pH 7.4) is 1.6. In turn, `CCCCCCCN(CCc1ccc(OC(C)(C)C(=O)O)cc1)C(=O)Nc1ccc(F)cc1F` showed a logD (pH 7.4, LogD7.4) of 1.93. On to `O=C(OCCN1CCCCC1)c1c[nH]c2ccccc12`, for which the logD (pH 7.4, LogD7.4) turned out to be 2. With `NC(=O)c1cccc(OC2CCN(Cc3ccccc3)CC2)c1`, the logD (pH 7.4, LogD7.4) was determined as 1.92. The same measure, in the same setting: the result for `Cc1occc(=O)c1OCc1ccc(F)cc1` reads 1.91; that for `Cc1occc(=O)c1OCc1ccccc1`, 1.87; that for `Nc1[nH]nc2cccc(Cl)c12`, 1.92.

`O=CN1CC=C(c2c(F)cc(N3C[C@H](COc4ccon4)OC3=O)cc2F)CC1`: the logD (pH 7.4, LogD7.4) amounted to 2.01. Same read-out and setting: the result for `O=c1c(-c2ccc(O)c(O)c2)coc2cc(O)ccc12` reads 1.88; that for `CC(C)C(NC(=O)Cn1c(-c2ccccc2)cc2c(O)nc(O)nc2c1=O)C(=O)C(F)(F)F` (stereo not drawn), 1.88; that for `N=C(N)Nc1nc2ccccc2o1`, 1.91. Still for that read-out and setting: the result for `Cc1cc2[nH]c(=O)c(O)cc(=O)c2cc1C` reads 1.99; that for `CC(C)C(NC(=O)Cn1c(-c2ccccc2)cc2c(=O)n(CCN3CCOCC3)c(=O)[nH]c2c1=O)C(=O)C(F)(F)F` (stereo not drawn), 1.91; that for `CC(C)C(NC(=O)Cn1c(-c2ccccc2)ccc(NC(=O)CN2CCOCC2)c1=O)C(=O)C(F)(F)F` (stereo not drawn), 2. Still for that read-out and setting: the result for `O=C(NNc1cccc(Cl)c1)c1cccnc1Cl` reads 1.87; that for `COc1cc(O)cc2occ(-c3ccc(O)cc3)c(=O)c12`, 2; that for `Cc1nc(N)c2nc(O)n(Cc3ccccc3)c2n1`, 2.04.

For the setting “pH 7.4, LogD7.4”, `FC(F)c1nc2ccccc2[nH]1` yielded a logD of 2.02.

`Nc1ccc(Cl)c(-c2nc3ncccc3o2)c1` returned a logD (pH 7.4, LogD7.4) of 1.97. The same measure, in the same setting: the result for `Cc1cc(Nc2ccc(F)cc2)nc(N)n1` reads 2.08.

Regarding `c1ccc(CCNCc2ccccc2)cc1`, the pH-dependent lipophilicity (logD) (pH 7.4) came to 1.65. Take `Nc1c2c(nc3c(-c4ncccn4)cccc13)CN(C1CCC1)C2=O`: under “pH 7.4, LogD7.4”, the logD was found to be 1.85. Turning to `CCCNC(=O)c1nnc2c(-c3ncccn3)c(F)ccc2c1N`, where the note is “pH 7.4, LogD7.4”, the logD turned out to be 2.07. On the same count and under the same terms, the result for `CCOc1cc2nnc(C(N)=O)c(Nc3cccc(Cl)c3F)c2cc1N1CCN(C)CC1` reads 1.99.

The molecule `COc1cc2c(Nc3c(Cl)ccc4c3OCO4)ncnc2cc1OCCCN1CCCCC1` registered a logD (pH 7.4, LogD7.4) of 2.05.

Molecule `COc1cc2c(Nc3c(Cl)ccc4c3OCO4)ncnc2cc1OCC1CCN(C)CC1` returned a logD (pH 7.4, LogD7.4) of 1.83. On to `Cc1cccc(NC(=O)NCC(c2cccnc2)N2CCOCC2)c1` (stereo not drawn), for which the logD (pH 7.4, LogD7.4) stood at 2.

Regarding `Oc1ncnc2onc(-c3ccc(F)cc3)c12`, the logD (pH 7.4, LogD7.4) came out at 1.97. Same read-out and setting: the result for `O=S1NC(Cc2ccc3ccccc3c2)=NO1` (stereo not drawn) reads 1.85; that for `COc1cc(F)ccc1-c1cncc(CNC[C@@H]2CCCO2)n1`, 2; that for `Fc1cccc(-c2cncc(CNCC3CC3)n2)c1F`, 1.82. Molecule `COc1cc(F)ccc1-c1cccc(CNC2CCCC2)n1` registered a logD (pH 7.4, LogD7.4) of 2.06. `O=C(NCc1ccncn1)c1ccc(Oc2ccc(C#C[C@]3(O)CN4CCC3CC4)cc2)cc1`: for the setting “pH 7.4”, the logD worked out at 1.78. The molecule `O=C(NCc1ccncn1)c1ccc(Oc2ccc(C#C[C@@]3(O)CN4CCC3CC4)cc2)cc1` yielded a logD (pH 7.4) of 1.77. `CCC(c1nc2ccsc2c(=O)n1Cc1ccccc1)N(CCCN)C(=O)c1ccc(C)cc1` (stereo not drawn) had a pH-dependent lipophilicity (logD) (pH 7.4, LogD7.4) of 1.81. `CCC(c1nc2sccc2c(=O)n1Cc1ccccc1)N(CCCN)C(=O)c1ccc(C)cc1` (stereo not drawn) returned a logD (pH 7.4, LogD7.4) of 2.06. In turn, `C[C@H]1O[C@@H](n2cnc3c(N)nc(OC(C4CC4)C(F)(F)F)nc32)[C@H](O)[C@@H]1O` (stereo partly drawn) showed a logD (pH 7.4, LogD7.4) of 1.83. `CN[C@@H](C)C(=O)N[C@H](C(=O)N[C@H]1CCCN(CCc2ccc(C)cc2)C1)C(C)(C)C` registered a pH-dependent lipophilicity (logD) (pH 7.4, LogD7.4) of 2.05. Consider `CN1CCCC(CN2CCN(C(=O)Nc3ccc(Cl)c(Cl)c3)CC2)C1` (stereo not drawn), for which the logD (pH 7.4, LogD7.4) stood at 1.98. Same read-out and setting: the result for `CCN1CCC[C@@H](CN2CCN(C(=O)Nc3ccc(Cl)c(Cl)c3)CC2)C1` reads 1.94. In turn, `CCN1CCC[C@H](CN2CCN(C(=O)Nc3ccc(Cl)c(Cl)c3)CC2)C1` came in with a logD (pH 7.4, LogD7.4) of 1.86. The same measure, in the same setting: the result for `CC(C)N1CCN[C@@H](CN2CCN(C(=O)Nc3ccc(Cl)c(Cl)c3)CC2)C1` reads 1.92; that for `CC(C)Cn1c(=O)n(C)c(=O)c2c(C(=O)N3CC[C@@H](O)C3)c(Cc3cccc4ncccc34)sc21`, 1.98; that for `c1ccc(C2Cc3ccccc3CN2)cc1` (stereo not drawn), 1.9. On the same count and under the same terms, the result for `CCCSc1ncccc1C(=O)N1CCCC1c1ccncc1` (stereo not drawn) reads 1.95. Turning to `c1ccc(CC2NCCc3ccccc32)cc1` (stereo not drawn), for the setting “pH 7.4, LogD7.4”, the logD is 1.89. Same read-out and setting: the result for `Cc1cccc(S(=O)(=O)NC(=O)N2CCC(N3CCC(Oc4ccc(Cl)c(Cl)c4)CC3)CC2)c1` reads 1.84; that for `N#Cc1cccc(S(=O)(=O)NC(=O)N2CCC(N3CCC(Oc4ccc(Cl)c(Cl)c4)CC3)CC2)c1`, 1.81. The same measure, in the same setting: the result for `CCOC(=O)c1coc2ccccc2c1=O` reads 1.81; that for `CCCCNc1nc(N)c2[nH]c(=O)n(Cc3ccc(OCCN(C)C)nc3)c2n1`, 1.9; that for `N#Cc1ccc2cccc(O)c2n1`, 1.81. Take `Cn1ccc2c(-c3nc(CS(C)(=O)=O)cc(N4CCOCC4)n3)cccc21`: the logD (pH 7.4, LogD7.4) was 2. This logD and that of the molecule before are within 0.2 log units of each other. Still for that read-out and setting: the result for `C1=CCC(c2cc3ccccc3o2)CNC1` (stereo not drawn) reads 1.94; that for `Cc1cc(-c2ccc(N3C[C@H](Cn4ccnn4)OC3=O)cc2F)on1`, 1.99. In turn, `Cn1c(N)nc(CCc2ccccc2)cc1=O` gave a logD (pH 7.4, LogD7.4) of 2. Same read-out and setting: the result for `CN1C(=O)CC(C)(CCc2cccc(-c3ccccc3)c2)N=C1N` (stereo not drawn) reads 2.03. For the setting “pH 7.4, LogD7.4”, `Cc1cc(O)ccc1N1C(=O)c2ccc(O)cc2C1=O` showed a logD of 2. For the molecule `CC[S+]([O-])c1ncccc1C1(O)CCN(CC23CC(c4ccccc42)c2ccccc23)CC1` (stereo not drawn), the logD (pH 7.4, LogD7.4) was 2. Turning to `CNc1cnc(-c2ccc(F)cc2)n(CC(=O)NC(C(=O)C(F)(F)F)C(C)C)c1=O` (stereo not drawn), the logD (pH 7.4, LogD7.4) came out at 1.86. `COC(=O)N1CCN(c2ccnc(-n3ccnc3)n2)C(CC(=O)NCc2ccc3c(c2)OCO3)C1` (stereo not drawn): the logD (pH 7.4, LogD7.4) worked out at 1.88. On to `O=C(O)c1[nH]c2cc(Cl)cc(Cl)c2c1/C=C1\CCN(c2ccccc2)C1=O`, for which the logD (pH 7.4, LogD7.4) was found to be 1.85. Take `c1ccc(-c2ccc(C3CN4CCC3CC4)cc2)cc1` (stereo not drawn): the logD (pH 7.4) was determined as 1.76. Same read-out and setting: the result for `COc1ccc2c(c1)cc(C(=O)O)n2Cc1ccc(Cl)c(Cl)c1` reads 1.66.

Consider `Cc1ccc(NC(=O)c2ccnc(N3CCOCC3)c2)cc1Nc1ccnc(OCC2CCCN(C)C2)n1` (stereo not drawn), for which, where the note is “pH 7.4, LogD7.4”, the logD stood at 1.9.

Regarding `Cc1ccc(NC(=O)c2ccnc(N3CCOCC3)c2)cc1Nc1ccnc(N(C)C2CCN(C)CC2)n1`, the logD (pH 7.4) was 1.8. Regarding `CC(C)Cn1c(=O)n(C)c(=O)c2c(C(=O)N3C[C@H](O)CO3)c(Cc3c[nH]c4ncccc34)sc21`, the logD (pH 7.4, LogD7.4) amounted to 2.04.

For `O=C1c2ccc(O)cc2C(=O)N1c1cccc(O)c1`, the logD (pH 7.4, LogD7.4) was determined as 2.

Where the note is “pH 7.4, LogD7.4”, `O=C1c2ccccc2C(=O)N1c1ccc(O)cc1` came in with a logD of 2.

`NS(=O)(=O)c1ccc2c(c1)C1C=CCC1C(c1cccc3ccccc13)N2` (stereo not drawn): the logD (pH 7.4, LogD7.4) was 1.9. Still for that read-out and setting: the result for `CCCc1c(OCc2cccc(NC(=O)c3ccccc3C(=O)O)c2)ccc(C(C)=O)c1O` reads 1.9; that for `Cc1cc(=O)[nH]c2ccccc12`, 1.9. For the setting “pH 7.4, LogD7.4”, `CN1CCN(C(=O)c2cc3cc(F)ccc3[nH]2)CC1` registered a logD of 1.97. Take `CC12NC(Cc3ccccc31)c1ccccc12` (stereo not drawn): the log distribution coefficient (logD) (pH 7.4) worked out at 1.7. With `CNC1=Nc2ncccc2C(c2cc[nH]c2)=NC1c1cccs1` (stereo not drawn), the logD (pH 7.4) came out at 1.73. For the setting “pH 7.4, LogD7.4”, `Cc1ncc(-c2ccnc(Nc3ccc(C(=O)NCCN(C)C)c(F)c3)n2)n1C(C)C` yielded a logD of 1.96. With `Cc1ncc(-c2nc(Nc3ccc(C(=O)N4CCCN(C)CC4)cc3)ncc2F)n1C(C)C`, the pH-dependent lipophilicity (logD) (pH 7.4, LogD7.4) is 2.02. The logD values of the last two molecules are within 0.2 log units of each other. Turning to `O=C1C(=O)c2cccnc2-c2ccccc21`, the logD (pH 7.4, LogD7.4) is 1.88.

In the case of `O=C1/C(=N\O)c2ccccc2N1Cc1ccccc1[N+](=O)[O-]`, the logD (pH 7.4, LogD7.4) came to 2.07. Same read-out and setting: the result for `NC(=O)c1c(N)sc2c1CCCC2` reads 1.84; that for `CC(C)C(NC(=O)Cn1c(-c2ccccc2)ccc(NC=O)c1=O)C(=O)C(F)(F)F` (stereo not drawn), 1.84. Take `CN(C)CCCNS(=O)(=O)c1ccc(Nc2nccc(-c3cnc4ccccn34)n2)cc1`: the logD (pH 7.4, LogD7.4) worked out at 1.9. On to `COc1cc(C(=O)NS(=O)(=O)c2ccccc2)ccc1Cn1ccc2ccc(C(=O)NCC3CCCC3)cc21`, for which the logD (pH 7.4, LogD7.4) is 1.93. In the case of `Nc1nc(-c2ccccc2)nn1Cc1ccccc1`, the logD (pH 7.4, LogD7.4) turned out to be 1.91.
